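Tested at 5 concentrations; 48 h exposure; 96-well plates; endpoints linearly interpolated, else capped at highest concentration. At the GI50, growth is halved. TGI marks complete inhibition of growth.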
Experiments:
Test in all cases: NCI anticancer screen, dose series, 48 h
RPMI-8226 leukemia = tested on: RPMI-8226 leukemia
OVCAR-5 ovarian = tested on: OVCAR-5 ovarian
HS 578T breast = tested on: HS 578T breast
MDA-MB-435 = tested on: MDA-MB-435
HL-60(TB) leukemia = tested on: HL-60(TB) leukemia
OVCAR-3 ovarian = tested on: OVCAR-3 ovarian
COLO 205 colon = tested on: COLO 205 colon
SK-MEL-28 melanoma = tested on: SK-MEL-28 melanoma
BT-549 breast = tested on: BT-549 breast
U251 CNS = tested on: U251 CNS
OVCAR-8 ovarian = tested on: OVCAR-8 ovarian
TK-10 renal = tested on: TK-10 renal
T-47D breast = tested on: T-47D breast
CCRF-CEM leukemia = tested on: CCRF-CEM leukemia
HCC-2998 colon = tested on: HCC-2998 colon
CAKI-1 renal = tested on: CAKI-1 renal
LOX IMVI melanoma = tested on: LOX IMVI melanoma
HOP-92 NSCLC = tested on: HOP-92 NSCLC
SF-268 CNS = tested on: SF-268 CNS
NCI-H460 lung = tested on: NCI-H460 lung
MOLT-4 leukemia = tested on: MOLT-4 leukemia
786-0 renal = tested on: 786-0 renal
IGROV1 ovarian = tested on: IGROV1 ovarian
MDA-MB-231 breast = tested on: MDA-MB-231 breast
UACC-257 melanoma = tested on: UACC-257 melanoma
SK-MEL-5 melanoma = tested on: SK-MEL-5 melanoma
UACC-62 melanoma = tested on: UACC-62 melanoma
HCT-116 colon = tested on: HCT-116 colon
NCI-H23 lung = tested on: NCI-H23 lung
SNB-75 CNS = tested on: SNB-75 CNS
A549 NSCLC = tested on: A549 NSCLC
HCT-15 colon = tested on: HCT-15 colon
UO-31 renal = tested on: UO-31 renal
SN12C renal = tested on: SN12C renal
MCF7 breast = tested on: MCF7 breast
MALME-3M melanoma = tested on: MALME-3M melanoma
SW-620 colon = tested on: SW-620 colon
K-562 leukemia = tested on: K-562 leukemia
HOP-62 NSCLC = tested on: HOP-62 NSCLC
ACHN renal = tested on: ACHN renal
DU-145 prostate = tested on: DU-145 prostate
SF-295 CNS = tested on: SF-295 CNS
OVCAR-4 ovarian = tested on: OVCAR-4 ovarian
SK-OV-3 ovarian = tested on: SK-OV-3 ovarian
NCI-H226 lung = tested on: NCI-H226 lung
HT29 colon = tested on: HT29 colon
EKVX NSCLC = tested on: EKVX NSCLC
SR leukemia = tested on: SR leukemia
SF-539 CNS = tested on: SF-539 CNS
NCI-H522 lung = tested on: NCI-H522 lung
PC-3 prostate = tested on: PC-3 prostate
NCI/ADR-RES ovarian = tested on: NCI/ADR-RES ovarian
SNB-19 CNS = tested on: SNB-19 CNS
KM12 colon = tested on: KM12 colon
A498 renal = tested on: A498 renal
M14 melanoma = tested on: M14 melanoma
SK-MEL-2 melanoma = tested on: SK-MEL-2 melanoma

What does the source list for CN1CCN(c2ccc(Nc3nc(NCCCNS(=O)(=O)c4cccc(F)c4)c4sccc4n3)cc2)CC1?
GI50 (RPMI-8226 leukemia): 2.85 µM; TGI (RPMI-8226 leukemia): 13.9 µM; GI50 (OVCAR-5 ovarian): 10.2 µM; TGI (OVCAR-5 ovarian): 22.3 µM; GI50 (HS 578T breast): 3.72 µM; TGI (HS 578T breast): 34.4 µM; GI50 (MDA-MB-435): 3.01 µM; TGI (MDA-MB-435): 11.3 µM; GI50 (HL-60(TB) leukemia): 1.78 µM; TGI (HL-60(TB) leukemia): 3.74 µM; GI50 (OVCAR-3 ovarian): 3.59 µM; TGI (OVCAR-3 ovarian): 15.3 µM; GI50 (COLO 205 colon): 3.61 µM; TGI (COLO 205 colon): 16.1 µM; GI50 (SK-MEL-28 melanoma): 1.61 µM; TGI (SK-MEL-28 melanoma): 3.08 µM; GI50 (BT-549 breast): 8.19 µM; TGI (BT-549 breast): 23.9 µM; GI50 (U251 CNS): 3.31 µM; TGI (U251 CNS): 13.5 µM; GI50 (OVCAR-8 ovarian): 5.67 µM; TGI (OVCAR-8 ovarian): 23.2 µM; GI50 (TK-10 renal): 14.5 µM; TGI (TK-10 renal): 28.2 µM; GI50 (T-47D breast): 10.9 µM; TGI (T-47D breast): 31.1 µM; GI50 (CCRF-CEM leukemia): 3.99 µM; TGI (CCRF-CEM leukemia): > 100 µM; GI50 (HCC-2998 colon): 4.35 µM; TGI (HCC-2998 colon): 15.5 µM; GI50 (CAKI-1 renal): 10.8 µM; TGI (CAKI-1 renal): 22.6 µM; GI50 (LOX IMVI melanoma): 1.74 µM; TGI (LOX IMVI melanoma): 3.58 µM; GI50 (HOP-92 NSCLC): 3.37 µM; TGI (HOP-92 NSCLC): 17.1 µM; GI50 (SF-268 CNS): 6.41 µM; TGI (SF-268 CNS): 24.9 µM; GI50 (NCI-H460 lung): 3.81 µM; TGI (NCI-H460 lung): 14.6 µM; GI50 (MOLT-4 leukemia): 1.34 µM; TGI (MOLT-4 leukemia): 12.8 µM; GI50 (786-0 renal): 2.47 µM; TGI (786-0 renal): 6.25 µM; GI50 (IGROV1 ovarian): 7.33 µM; TGI (IGROV1 ovarian): 20.9 µM; GI50 (MDA-MB-231 breast): 3.54 µM; TGI (MDA-MB-231 breast): 12.7 µM; GI50 (UACC-257 melanoma): 1.86 µM; TGI (UACC-257 melanoma): 3.81 µM; GI50 (SK-MEL-5 melanoma): 3.49 µM; TGI (SK-MEL-5 melanoma): 12 µM; GI50 (UACC-62 melanoma): 2.46 µM; TGI (UACC-62 melanoma): 7.07 µM; GI50 (HCT-116 colon): 3.73 µM; TGI (HCT-116 colon): 16.4 µM; GI50 (NCI-H23 lung): 11.7 µM; TGI (NCI-H23 lung): 25.7 µM; GI50 (SNB-75 CNS): 11.5 µM; TGI (SNB-75 CNS): 23.9 µM; GI50 (A549 NSCLC): 10 µM; TGI (A549 NSCLC): 23.7 µM; GI50 (HCT-15 colon): 2.18 µM; TGI (HCT-15 colon): 6.88 µM; GI50 (UO-31 renal): 10.1 µM; TGI (UO-31 renal): 21.7 µM; GI50 (SN12C renal): 11.5 µM; TGI (SN12C renal): 23.8 µM; GI50 (MCF7 breast): 3.52 µM; TGI (MCF7 breast): 14.3 µM; GI50 (MALME-3M melanoma): 1.8 µM; TGI (MALME-3M melanoma): 3.25 µM; GI50 (SW-620 colon): 4.12 µM; TGI (SW-620 colon): 17.2 µM; GI50 (K-562 leukemia): 1.43 µM; TGI (K-562 leukemia): 9.8 µM; GI50 (HOP-62 NSCLC): 14.8 µM; TGI (HOP-62 NSCLC): 29 µM; GI50 (ACHN renal): 4.49 µM; TGI (ACHN renal): 16.2 µM; GI50 (DU-145 prostate): 10.5 µM; TGI (DU-145 prostate): 23 µM; GI50 (SF-295 CNS): 3.74 µM; TGI (SF-295 CNS): 13.8 µM; GI50 (OVCAR-4 ovarian): 3.45 µM; TGI (OVCAR-4 ovarian): 14.7 µM; GI50 (SK-OV-3 ovarian): 17.3 µM; TGI (SK-OV-3 ovarian): 32.3 µM; GI50 (NCI-H226 lung): 6.63 µM; TGI (NCI-H226 lung): 20.1 µM; GI50 (HT29 colon): 2.18 µM; TGI (HT29 colon): 5.14 µM; GI50 (EKVX NSCLC): 9.48 µM; TGI (EKVX NSCLC): 21.3 µM; GI50 (SR leukemia): 1.79 µM; TGI (SR leukemia): 5.5 µM; GI50 (SF-539 CNS): 1.67 µM; TGI (SF-539 CNS): 3.18 µM; GI50 (NCI-H522 lung): 3.2 µM; TGI (NCI-H522 lung): 14.1 µM; GI50 (PC-3 prostate): 6.87 µM; TGI (PC-3 prostate): 25.1 µM; GI50 (NCI/ADR-RES ovarian): 13.9 µM; TGI (NCI/ADR-RES ovarian): 38.5 µM; GI50 (SNB-19 CNS): 7.7 µM; TGI (SNB-19 CNS): 20.2 µM; GI50 (KM12 colon): 10.8 µM; TGI (KM12 colon): 40.5 µM; GI50 (A498 renal): 10.9 µM; TGI (A498 renal): 23 µM; GI50 (M14 melanoma): 1.78 µM; TGI (M14 melanoma): 3.69 µM; GI50 (SK-MEL-2 melanoma): 12.8 µM; TGI (SK-MEL-2 melanoma): 25.9 µM
